Reference: publication PMC8217266 (Clinical Pharmacology and Therapeutics, 2021)

Assays:
[1] = test system: triglycerides, LDL cholesterol, and total cholesterol, biomarkers of OCT1 activity; experiment: UCSF EHR analysis: lipid levels in patients with HIV, on vs off drug; type: in vivo, human
BCRP = target: T1, BCRP (Homo sapiens, UniProt Q9UNQ0); experiment: biochemical
T1 sequence (Q9UNQ0 1-655): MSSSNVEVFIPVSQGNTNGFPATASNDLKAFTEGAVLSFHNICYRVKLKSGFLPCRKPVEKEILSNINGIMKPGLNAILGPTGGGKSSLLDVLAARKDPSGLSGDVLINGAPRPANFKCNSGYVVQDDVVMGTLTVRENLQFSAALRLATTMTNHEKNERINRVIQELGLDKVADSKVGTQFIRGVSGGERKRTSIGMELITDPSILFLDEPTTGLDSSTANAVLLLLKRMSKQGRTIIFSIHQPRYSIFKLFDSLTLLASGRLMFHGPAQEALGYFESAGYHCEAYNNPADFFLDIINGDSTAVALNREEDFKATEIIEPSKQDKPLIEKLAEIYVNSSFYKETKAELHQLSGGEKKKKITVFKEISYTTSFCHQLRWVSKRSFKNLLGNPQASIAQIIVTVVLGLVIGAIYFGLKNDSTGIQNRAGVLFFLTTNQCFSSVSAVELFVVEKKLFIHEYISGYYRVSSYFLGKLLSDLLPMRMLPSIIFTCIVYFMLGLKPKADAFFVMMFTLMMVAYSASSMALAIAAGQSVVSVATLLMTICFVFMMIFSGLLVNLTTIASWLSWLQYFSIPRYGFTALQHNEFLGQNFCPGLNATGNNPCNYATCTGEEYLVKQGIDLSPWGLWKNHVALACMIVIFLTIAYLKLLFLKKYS

human MATE2 [2] = target: T2, human MATE2 (Homo sapiens, UniProt Q86VL8); experiment: cell-based
T2 sequence (Q86VL8 1-566 isoform Q86VL8-3): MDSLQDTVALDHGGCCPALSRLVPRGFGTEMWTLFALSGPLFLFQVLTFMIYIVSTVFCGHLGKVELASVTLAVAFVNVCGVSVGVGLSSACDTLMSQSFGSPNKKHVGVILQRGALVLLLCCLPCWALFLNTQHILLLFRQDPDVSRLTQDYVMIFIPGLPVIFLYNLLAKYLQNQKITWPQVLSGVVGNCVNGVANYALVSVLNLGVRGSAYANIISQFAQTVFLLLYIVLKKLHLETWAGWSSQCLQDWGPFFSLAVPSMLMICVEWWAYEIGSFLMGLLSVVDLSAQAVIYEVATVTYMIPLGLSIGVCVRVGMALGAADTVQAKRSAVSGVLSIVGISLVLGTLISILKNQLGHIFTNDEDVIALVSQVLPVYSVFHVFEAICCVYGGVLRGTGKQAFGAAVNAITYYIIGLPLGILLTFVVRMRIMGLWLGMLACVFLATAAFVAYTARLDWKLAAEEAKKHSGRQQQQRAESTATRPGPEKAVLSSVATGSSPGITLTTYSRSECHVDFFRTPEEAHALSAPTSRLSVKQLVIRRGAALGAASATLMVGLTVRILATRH

human OCT1 [3] = target: T3, human OCT1 (Homo sapiens, UniProt O15245); experiment: cell-based
T3 sequence (O15245 1-554): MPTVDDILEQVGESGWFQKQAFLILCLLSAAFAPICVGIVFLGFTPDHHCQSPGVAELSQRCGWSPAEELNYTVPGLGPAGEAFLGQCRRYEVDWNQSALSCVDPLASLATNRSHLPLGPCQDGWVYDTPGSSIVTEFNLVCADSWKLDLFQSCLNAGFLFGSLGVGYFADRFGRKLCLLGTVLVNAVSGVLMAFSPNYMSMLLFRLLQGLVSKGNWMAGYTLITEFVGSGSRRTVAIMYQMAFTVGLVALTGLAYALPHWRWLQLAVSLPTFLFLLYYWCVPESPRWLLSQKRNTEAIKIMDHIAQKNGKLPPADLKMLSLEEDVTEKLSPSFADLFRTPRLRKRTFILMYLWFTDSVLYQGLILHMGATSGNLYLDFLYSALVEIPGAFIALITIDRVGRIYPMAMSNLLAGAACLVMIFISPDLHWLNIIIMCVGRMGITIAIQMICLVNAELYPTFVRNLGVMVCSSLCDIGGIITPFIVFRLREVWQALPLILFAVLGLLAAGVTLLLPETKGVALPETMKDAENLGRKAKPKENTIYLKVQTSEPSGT

human OATP1B3 = target: T4, human OATP1B3 (Homo sapiens, UniProt Q9NPD5)
T4 sequence (Q9NPD5 1-702): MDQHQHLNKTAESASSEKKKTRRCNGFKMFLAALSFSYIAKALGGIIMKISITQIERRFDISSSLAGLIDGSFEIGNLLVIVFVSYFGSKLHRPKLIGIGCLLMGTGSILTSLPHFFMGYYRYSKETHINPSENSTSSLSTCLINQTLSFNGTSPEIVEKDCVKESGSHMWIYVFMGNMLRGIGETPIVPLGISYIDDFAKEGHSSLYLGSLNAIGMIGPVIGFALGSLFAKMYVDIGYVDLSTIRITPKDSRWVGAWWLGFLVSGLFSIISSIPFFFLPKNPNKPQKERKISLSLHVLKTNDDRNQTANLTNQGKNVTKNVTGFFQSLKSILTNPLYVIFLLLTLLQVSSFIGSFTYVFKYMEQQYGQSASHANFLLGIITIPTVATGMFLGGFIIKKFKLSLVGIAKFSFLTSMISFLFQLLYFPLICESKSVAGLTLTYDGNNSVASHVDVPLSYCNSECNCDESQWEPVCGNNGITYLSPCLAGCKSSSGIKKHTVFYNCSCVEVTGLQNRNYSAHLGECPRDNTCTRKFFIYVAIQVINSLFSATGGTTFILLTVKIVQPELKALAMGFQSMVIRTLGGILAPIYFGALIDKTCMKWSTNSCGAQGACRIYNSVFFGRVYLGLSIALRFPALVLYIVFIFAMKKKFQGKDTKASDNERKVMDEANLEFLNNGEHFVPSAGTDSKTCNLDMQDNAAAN

human OCT2 = target: T5, human OCT2 (Homo sapiens, UniProt O15244)
T5 sequence (O15244 1-555): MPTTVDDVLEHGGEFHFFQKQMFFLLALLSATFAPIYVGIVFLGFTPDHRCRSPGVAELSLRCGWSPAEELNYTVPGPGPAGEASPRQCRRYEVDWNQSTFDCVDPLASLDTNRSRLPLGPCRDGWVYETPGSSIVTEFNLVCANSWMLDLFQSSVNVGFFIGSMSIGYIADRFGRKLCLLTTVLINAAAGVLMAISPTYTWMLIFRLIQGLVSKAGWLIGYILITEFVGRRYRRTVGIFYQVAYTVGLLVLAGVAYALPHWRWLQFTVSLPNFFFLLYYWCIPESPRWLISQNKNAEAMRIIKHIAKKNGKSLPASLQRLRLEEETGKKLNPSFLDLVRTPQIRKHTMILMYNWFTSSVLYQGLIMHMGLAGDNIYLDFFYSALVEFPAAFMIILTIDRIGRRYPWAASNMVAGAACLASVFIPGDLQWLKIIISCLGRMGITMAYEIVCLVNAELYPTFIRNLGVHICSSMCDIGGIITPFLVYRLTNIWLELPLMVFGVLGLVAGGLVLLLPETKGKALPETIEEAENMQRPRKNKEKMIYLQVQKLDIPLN

human OCT1 [4] = target: T3, human OCT1; conditions: for Iu,in,max/IC50 OCT1: human
human MATE2 [5] = target: T2, human MATE2
[6] = test system: uric acid, a biomarker of BCRP activity; experiment: UCSF EHR analysis: serum/plasma uric acid, on vs off drug; type: in vivo, human

SMILES	LDL cholesterol, Median On drug ([1]; matched 1:2, off drug 95)	Total cholesterol, Median On drug ([1]; matched 1:2, off drug 166)	LDL cholesterol, Average On drug ([1]; matched 1:2, on n=357, off n=714, off drug 98.7, P 0.0077)	Total cholesterol, Average On drug ([1]; matched 1:2, on n=364, off n=728, off drug 170, P 5.18E-06)	Triglyceride, Average On drug ([1]; matched 1:2, on n=386, off n=772, off drug 160, P 0.00022)	IC50 (BCRP)	IC50 (human MATE2 [2])	IC50 (human OCT1 [3])	Iu,in,max/IC50 OATP1B3 (human OATP1B3)	Cu,max/IC50 OCT2 (human OCT2)	Iu,in,max/IC50 OCT1 (human OCT1 [4])	Cu,max/IC50 MATE2-K (human MATE2 [5])	Median SUA On drug ([6]; criteria 1, off drug 5.7)	Median SUA On drug ([6]; criteria 2, off drug 5.6)	Median SUA On drug ([6]; main analysis, matched 1:5, off drug 5.7, P <2.2E-16)	OCT1 inhibited more potently relative to OCT2 (human OCT1 [4])
CC(C)CN(C[C@@H](O)[C@H](Cc1ccccc1)NC(=O)O[C@H]1CO[C@H]2OCC[C@H]21)S(=O)(=O)c1ccc(N)cc1 [Darunavir]	100/95 mg/dL	180/166 mg/dL	105/98.7 mg/dL	183/170 mg/dL	180/160 mg/dL	> 100 µM	30.7 ± 20.2 µM									
CCC(CC)COC(=O)[C@H](C)N[P@](=O)(OC[C@H]1O[C@@](C#N)(c2ccc3c(N)ncnn23)[C@H](O)[C@@H]1O)Oc1ccccc1 [Remdesivir]						25 ± 6 µM	15.2 ± 9.7 µM	10.1 ± 0.01 µM								
N#CC[C@H](C1CCCC1)n1cc(-c2ncnc3[nH]ccc23)cn1 [Ruxolitinib]						> 100 µM	3.7 ± 2.3 µM	9.7 ± 4.3 µM	0.008	0.003	0.02					
CCCc1nn(C)c2c(=O)[nH]c(-c3cc(S(=O)(=O)N4CCN(C)CC4)ccc3OCC)nc12 [Sildenafil]						3.1 ± 2.5 µM	14.4 ± 1.3 µM	19.8 ± 6.4 µM				0.003	6.7/5.7 mg/dL	6.9/5.6 mg/dL	6.6/5.7 mg/dL	
CCOC(=O)c1c(CSc2ccccc2)n(C)c2cc(Br)c(O)c(CN(C)C)c12 [Umifenovir (Arbidol), Umifenovir]						> 100 µM	4.1 ± 1.6 µM	1.2 ± 0.1 µM	0.73	0.006	3.93	0.02				≥ 10 fold
